Results taken from US6395896B2, “Pyridazine derivatives, manufacturing method and related composition” (Shiseido Co., Ltd., priority 1999, dated 2002).

Assay: Pigment stabilization effect (sequestering agent combination)
Set-up: key to Sunlight exposure (80 MJ) Appearance: A: No change; B: No almost change; C: Yes change; key to Sunlight exposure (80 MJ) ΔE: color difference ΔE in Lab space vs. color before sunlight exposure
Conditions: for Sunlight exposure (80 MJ) Appearance / Sunlight exposure (80 MJ) ΔE: amounts wt %
Description: First of all, the photostabilization effect and appearance changes of a composition for each pigment were studied by the following evaluation formulation.
Each test sample was prepared. Observation of appearance changes (visual evaluation) and measurement of color difference (ΔE) were carried out for samples exposed to sunlight (around 80 MJ).
Color difference was measured by Lab coordinate system with spectrophotometer. Color difference was calculated based on the color before sunlight exposure. Namely, from the measured value (L1,a1,b1) before sunlight exposure, color difference (ΔE) was calculated by following formula.

[1] = colorant Blue No. 1 0.0001, photostabilizer 0.02 + Sodium metaphosphate 0.03
[2] = colorant Blue No. 1 0.0001, photostabilizer 0.02 + Trisodium ethylenediamine tetraacetate 0.03
[3] = colorant Blue No. 1 0.0001, photostabilizer 0.02 + Trisodium hydroxyethyl ethylenediamine triacetate 0.03
[4] = colorant Blue No. 1 0.0001, photostabilizer 0.02, no sequestering agent
[5] = colorant Green No. 3 0.0001, photostabilizer 0.02 + Sodium metaphosphate 0.03
[6] = colorant Green No. 3 0.0001, photostabilizer 0.02 + Sodium polyphosphate 0.03
[7] = colorant Green No. 3 0.0001, photostabilizer 0.02 + Trisodium ethylenediamine tetraacetate 0.03
[8] = colorant Green No. 3 0.0001, photostabilizer 0.02, no sequestering agent
[9] = colorant Red No. 106 0.0001, photostabilizer 0.02 + Sodium metaphosphate 0.02
[10] = colorant Red No. 106 0.0001, photostabilizer 0.02 + Sodium polyphosphate 0.02
[11] = colorant Red No. 106 0.0001, photostabilizer 0.02 + Trisodium ethylenediamine tetraacetate 0.02
[12] = colorant Red No. 106 0.0001, photostabilizer 0.02, no sequestering agent
[13] = colorant Red No. 213 0.0001, photostabilizer 0.03 + Sodium metaphosphate 0.05
[14] = colorant Red No. 213 0.0001, photostabilizer 0.03 + Trisodium ethylenediamine tetraacetate 0.05
[15] = colorant Red No. 213 0.0001, photostabilizer 0.03 + Trisodium hydroxyethyl ethylenediamine triacetate 0.05
[16] = colorant Red No. 213 0.0001, photostabilizer 0.03, no sequestering agent
[17] = colorant Red No. 227 0.0001, photostabilizer 0.01 + Sodium metaphosphate 0.02
[18] = colorant Red No. 227 0.0001, photostabilizer 0.01 + Trisodium ethylenediamine tetraacetate 0.02
[19] = colorant Red No. 227 0.0001, photostabilizer 0.01 + Trisodium hydroxyethyl ethylenediamine triacetate 0.02
[20] = colorant Red No. 227 0.0001, photostabilizer 0.01, no sequestering agent
[21] = colorant Red No. 401 0.001, photostabilizer 0.02 + Sodium metaphosphate 0.1
[22] = colorant Red No. 401 0.001, photostabilizer 0.02 + Sodium polyphosphate 0.1
[23] = colorant Red No. 401 0.001, photostabilizer 0.03 + Trisodium ethylenediamine tetraacetate 0.1
[24] = colorant Red No. 401 0.001, photostabilizer 0.03, no sequestering agent
[25] = colorant Yellow No. 5 0.001, photostabilizer 0.01 + Sodium metaphosphate 0.02
[26] = colorant Yellow No. 5 0.001, photostabilizer 0.01 + Sodium polyphosphate 0.02
[27] = colorant Yellow No. 5 0.001, photostabilizer 0.01 + Trisodium ethylenediamine tetraacetate 0.02
[28] = colorant Yellow No. 5 0.001, photostabilizer 0.01, no sequestering agent
[29] = colorant Yellow No. 203 0.001, photostabilizer 0.01 + Sodium metaphosphate 0.02
[30] = colorant Yellow No. 203 0.001, photostabilizer 0.01 + Trisodium ethylenediamine tetraacetate 0.02
[31] = colorant Yellow No. 203 0.001, photostabilizer 0.01 + Trisodium hydroxyethyl ethylenediamine triacetate 0.02
[32] = colorant Yellow No. 203 0.001, photostabilizer 0.01, no sequestering agent
[33] = colorants Red No. 106 0.00001 + Yellow No. 5 0.0001, photostabilizer 0.02 + Trisodium ethylenediamine tetraacetate 0.02
[34] = colorants Red No. 106 0.00001 + Yellow No. 5 0.0001, photostabilizer 0.02, no sequestering agent
[35] = colorants Red No. 106 0.00001 + Yellow No. 203 0.0001, photostabilizer 0.02 + Trisodium hydroxyethyl ethylenediamine triacetate 0.02
[36] = colorants Red No. 106 0.00001 + Yellow No. 203 0.0001, photostabilizer 0.02, no sequestering agent
[37] = colorants Red No. 213 0.00001 + Blue No. 1 0.00001, photostabilizer 0.02 + Trisodium hydroxyethyl ethylenediamine triacetate 0.03
[38] = colorants Red No. 213 0.00001 + Blue No. 1 0.00001, photostabilizer 0.02, no sequestering agent
[39] = colorants Red No. 227 0.0001 + Yellow No. 5 0.0001, photostabilizer 0.02 + Trisodium ethylenediamine tetraacetate 0.02
[40] = colorants Red No. 227 0.0001 + Yellow No. 5 0.0001, photostabilizer 0.02, no sequestering agent
[41] = colorants Red No. 227 0.0001 + Yellow No. 203 0.0001, photostabilizer 0.05 + Sodium metaphosphate 0.02
[42] = colorants Red No. 227 0.0001 + Yellow No. 203 0.0001, photostabilizer 0.05, no sequestering agent
[43] = colorants Red No. 401 0.0001 + Blue No. 1 0.00001, photostabilizer 0.02 + Trisodium ethylenediamine tetraacetate 0.03
[44] = colorants Red No. 401 0.0001 + Blue No. 1 0.00001, photostabilizer 0.02, no sequestering agent
[45] = colorants Red No. 401 0.0001 + Green No. 3 0.00001, photostabilizer 0.02 + Sodium metaphosphate 0.03
[46] = colorants Red No. 401 0.0001 + Green No. 3 0.00001, photostabilizer 0.02, no sequestering agent
[47] = colorants Yellow No. 203 0.0001 + Yellow No. 5 0.0001, photostabilizer 0.02 + Sodium metaphosphate 0.01
[48] = colorants Yellow No. 203 0.0001 + Yellow No. 5 0.0001, photostabilizer 0.02, no sequestering agent

## Oc1nncc(N2CCOCC2)c1N1CCOCC1 [4,5-Dimorpholino-3-hydroxypyridazine]
[1]
  Sunlight exposure (80 MJ) Appearance: A
  Sunlight exposure (80 MJ) ΔE: 1.00
[2]
  Sunlight exposure (80 MJ) Appearance: A
  Sunlight exposure (80 MJ) ΔE: 1.18
[3]
  Sunlight exposure (80 MJ) Appearance: A
  Sunlight exposure (80 MJ) ΔE: 1.08
[4]
  Sunlight exposure (80 MJ) Appearance: B
  Sunlight exposure (80 MJ) ΔE: 1.74
[5]
  Sunlight exposure (80 MJ) Appearance: A
  Sunlight exposure (80 MJ) ΔE: 0.28
[6]
  Sunlight exposure (80 MJ) Appearance: A
  Sunlight exposure (80 MJ) ΔE: 0.52
[7]
  Sunlight exposure (80 MJ) Appearance: A
  Sunlight exposure (80 MJ) ΔE: 0.48
[8]
  Sunlight exposure (80 MJ) Appearance: B
  Sunlight exposure (80 MJ) ΔE: 0.75
[9]
  Sunlight exposure (80 MJ) Appearance: A
  Sunlight exposure (80 MJ) ΔE: 0.77
[10]
  Sunlight exposure (80 MJ) Appearance: A
  Sunlight exposure (80 MJ) ΔE: 0.85
[11]
  Sunlight exposure (80 MJ) Appearance: A
  Sunlight exposure (80 MJ) ΔE: 0.84
[12]
  Sunlight exposure (80 MJ) Appearance: B
  Sunlight exposure (80 MJ) ΔE: 1.23
[13]
  Sunlight exposure (80 MJ) Appearance: A
  Sunlight exposure (80 MJ) ΔE: 1.38
[14]
  Sunlight exposure (80 MJ) Appearance: A
  Sunlight exposure (80 MJ) ΔE: 1.45
[15]
  Sunlight exposure (80 MJ) Appearance: A
  Sunlight exposure (80 MJ) ΔE: 1.41
[16]
  Sunlight exposure (80 MJ) Appearance: B
  Sunlight exposure (80 MJ) ΔE: 2.12
[17]
  Sunlight exposure (80 MJ) Appearance: B
  Sunlight exposure (80 MJ) ΔE: 0.84
[18]
  Sunlight exposure (80 MJ) Appearance: A
  Sunlight exposure (80 MJ) ΔE: 0.62
[19]
  Sunlight exposure (80 MJ) Appearance: A
  Sunlight exposure (80 MJ) ΔE: 0.58
[20]
  Sunlight exposure (80 MJ) Appearance: B
  Sunlight exposure (80 MJ) ΔE: 0.98
[21]
  Sunlight exposure (80 MJ) Appearance: A
  Sunlight exposure (80 MJ) ΔE: 0.66
[22]
  Sunlight exposure (80 MJ) Appearance: A
  Sunlight exposure (80 MJ) ΔE: 0.78
[23]
  Sunlight exposure (80 MJ) Appearance: A
  Sunlight exposure (80 MJ) ΔE: 0.71
[24]
  Sunlight exposure (80 MJ) Appearance: A
  Sunlight exposure (80 MJ) ΔE: 0.95
[25]
  Sunlight exposure (80 MJ) Appearance: A
  Sunlight exposure (80 MJ) ΔE: 0.36
[26]
  Sunlight exposure (80 MJ) Appearance: A
  Sunlight exposure (80 MJ) ΔE: 0.33
[27]
  Sunlight exposure (80 MJ) Appearance: A
  Sunlight exposure (80 MJ) ΔE: 0.32
[28]
  Sunlight exposure (80 MJ) Appearance: B
  Sunlight exposure (80 MJ) ΔE: 0.61
[29]
  Sunlight exposure (80 MJ) Appearance: A
  Sunlight exposure (80 MJ) ΔE: 0.22
[30]
  Sunlight exposure (80 MJ) Appearance: A
  Sunlight exposure (80 MJ) ΔE: 0.28
[31]
  Sunlight exposure (80 MJ) Appearance: A
  Sunlight exposure (80 MJ) ΔE: 0.25
[32]
  Sunlight exposure (80 MJ) Appearance: B
  Sunlight exposure (80 MJ) ΔE: 0.95
[33]
  Sunlight exposure (80 MJ) Appearance: A
  Sunlight exposure (80 MJ) ΔE: 0.98
[34]
  Sunlight exposure (80 MJ) Appearance: B
  Sunlight exposure (80 MJ) ΔE: 1.33
[35]
  Sunlight exposure (80 MJ) Appearance: A
  Sunlight exposure (80 MJ) ΔE: 0.75
[36]
  Sunlight exposure (80 MJ) Appearance: A
  Sunlight exposure (80 MJ) ΔE: 1.10
[37]
  Sunlight exposure (80 MJ) Appearance: A
  Sunlight exposure (80 MJ) ΔE: 1.22
[38]
  Sunlight exposure (80 MJ) Appearance: B
  Sunlight exposure (80 MJ) ΔE: 1.88
[39]
  Sunlight exposure (80 MJ) Appearance: A
  Sunlight exposure (80 MJ) ΔE: 0.71
[40]
  Sunlight exposure (80 MJ) Appearance: B
  Sunlight exposure (80 MJ) ΔE: 1.02
[41]
  Sunlight exposure (80 MJ) Appearance: A
  Sunlight exposure (80 MJ) ΔE: 1.01
[42]
  Sunlight exposure (80 MJ) Appearance: A
  Sunlight exposure (80 MJ) ΔE: 1.55
[43]
  Sunlight exposure (80 MJ) Appearance: A
  Sunlight exposure (80 MJ) ΔE: 0.88
[44]
  Sunlight exposure (80 MJ) Appearance: A
  Sunlight exposure (80 MJ) ΔE: 1.36
[45]
  Sunlight exposure (80 MJ) Appearance: A
  Sunlight exposure (80 MJ) ΔE: 0.73
[46]
  Sunlight exposure (80 MJ) Appearance: B
  Sunlight exposure (80 MJ) ΔE: 1.45
[47]
  Sunlight exposure (80 MJ) Appearance: A
  Sunlight exposure (80 MJ) ΔE: 0.48
[48]
  Sunlight exposure (80 MJ) Appearance: A
  Sunlight exposure (80 MJ) ΔE: 0.78
With a sequestering agent, compared with compositions not having a sequestering agent, Tables 24 to 26
  color difference ΔE: very small
With a sequestering agent, Tables 24 to 26
  change of appearance of the composition: small
